From publication PMC8962382, “Identification of Novel Mitochondrial Pyruvate Carrier Inhibitors by Homology Modeling and Pharmacophore-Based Virtual Screening” (Biomedicines, 2022)
Substitutions are numbered along the chain they refer to. Like-named read-outs stand apart in the source and are kept apart here.

Legend:
[1] = target: T1, mitochondrial pyruvate carrier (MPC) (Mus musculus, UniProt P63030+Q9D023); test: Inhibition of pyruvate-stimulated respiration (OCR) of isolated heart mitochondria; assay type: biochemical, mice; settings: for IC50: Table 1, inhibiting mitochondrial pyruvate respiration, isolated heart mitochondria
T1 construct: 50 µg of mitochondrial protein was added to the chambers of an Oxygraph O2K; from tissue; host or cells: heart mitochondria of C57Bl/6J mice
T1 sequence (P63030 2-109 limits assumed): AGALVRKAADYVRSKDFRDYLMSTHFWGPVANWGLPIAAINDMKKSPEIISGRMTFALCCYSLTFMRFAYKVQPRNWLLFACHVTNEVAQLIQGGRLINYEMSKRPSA
T1 sequence (Q9D023 1-127): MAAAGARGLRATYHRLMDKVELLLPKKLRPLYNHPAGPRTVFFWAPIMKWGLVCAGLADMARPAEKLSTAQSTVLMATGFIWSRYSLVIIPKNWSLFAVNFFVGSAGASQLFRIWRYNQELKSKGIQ
Procedure: Hearts were removed from mice after CO2 asphyxiation and homogenized in buffer containing 250 mM sucrose, 10 mM Tris base, and 1 mM EDTA (pH = 7.4) by 8–10 passes of a glass-on-glass Dounce homogenizer on ice. Homogenates were centrifuged at 1000× g for 5 min at 4 °C to pellet nuclei and undisrupted cells. The supernatants were then centrifuged at 10,000× g for 10 min at 4 °C to enrich for mitochondria; this mitochondrial pellet was washed and re-pelleted twice in fresh sucrose/tris buffer. The mitochondrial pellet was then solubilized in ~150 μL of Mir05 respiration buffer (0.5 mM EGTA, 3 mM MgCl2, 60 mM lactobionic acid, 20 mM taurine, 10 mM KH2PO4, 20 mM HEPES, 110 mM sucrose and 1 g/L of fatty acid free bovine serum albumin; pH 7.1). Mitochondrial protein content was then measured by BCA; 50 µg of mitochondrial protein was added to the chambers of an Oxygraph O2K (Oroboros Instruments), with a total volume of 2 mL Mir05 buffer set to 37 °C. Respiration was stimulated with 5 mM pyruvate/2 mM malate and 2 mM ADP. After obtaining steady state respiration measurements, compounds were added to the chamber at the indicated concentrations. Then, 5 mM succinate was added to determine inhibitor specificity towards pyruvate-stimulated respiration. Steady-state rates of oxygen consumption were assessed for 1–2 min before addition of subsequent substrate or inhibitor. Oxygen consumption rates (OCR) were calculated from the change in oxygen concentration over time and normalized to 50 µg of mitochondria within the chamber.

[2] = target: T2, Human MPC1 and MPC2 (WT MPC BRET constructs) (Homo sapiens, UniProt O95563+Q9Y5U8); test: BRET-based MPC reporter assay in U2OS cells (MPC1-mCherry / MPC2-NLuc); assay type: cell-based; settings: for BRET activity: test compounds dosed at 10 μM, U2OS cells, WT MPC BRET constructs; for BRET assay activation: WT MPC
T2 construct: expressed in transfected cells; host or cells: U2OS cells, transient transfection
T2 sequence (Q9Y5U8 2-109 limits assumed): T1 sequence (P63030 2-109 limits assumed) with V84A, N99K, Y100H, S103T, R105T, P106A
T2 sequence (O95563 1-127): T1 sequence (Q9D023 1-127) with A2S, M17L, L23M, K26E, T73A, S105A, S123A, G125A, I126H, Q127K
Procedure: Based on the success of a previously described MPC BRET reporter assay, we developed our own BRET assay using more recently adopted BRET donor and acceptor pairs. In this assay, Nanoluciferase is used as the BRET donor, and mCherry fluorescent protein is used as the BRET acceptor. Human MPC1 and MPC2 cDNA constructs with stop codon removed for C-terminal tagging were obtained from the Harvard PlasmID repository. […] Site-directed mutagenesis (Agilent) was then performed to delete linking regions between the MPC proteins and C-terminal tags.
For BRET assays, U2OS cells were transiently transfected with MPC1-mCherry and MPC2-NLuc constructs and, 24 h later, plated onto 9 columns of a clear-bottom white 96-well plate at 10,000 cells/well. As a BRET control, some cells were transfected with MPC2-NLuc only, and these cells plated on the remaining 3 columns of the 96-well plate at 10,000 cells/well. The following day, cells were washed with PBS and starved in phenol red-, glucose-, and pyruvate-free Dulbecco’s Modified Eagle’s Medium (DMEM) for 3 h. Cells were then washed in PBS and then provided PBS with 1 mM CaCl2 and 0.5 mM MgCl2 plus 2 μg/mL coelenterazine h BRET substrate, a white sticker applied to the bottom of the plate, and the plate immediately placed into a BioTek Synergy plate reader. […] After several baseline readings, the plate was ejected, and test substrates/compounds were manually pipetted into the wells. […] All data was then normalized to the values immediately prior to compound injection. Data were either reported as curves over time or average normalized BRET of the several readings immediately after compound injections. For testing pyruvate/inhibitor-binding residues, point mutations were made in MPC1 or MPC2 constructs by site-directed mutagenesis (Agilent); BRET assays were performed the same as above. All of these assays contained 96-well plates directly comparing cells expressing WT MPC and mutant BRET constructs.

MPC1-F66A or MPC2-K49A = test: BRET-based MPC reporter assay with mutant MPC constructs; assay type: cell-based, Human; settings: magnitude much less than in WT-expressing cells
Procedure: For BRET assays, U2OS cells were transiently transfected with MPC1-mCherry and MPC2-NLuc constructs and, 24 h later, plated onto 9 columns of a clear-bottom white 96-well plate at 10,000 cells/well. As a BRET control, some cells were transfected with MPC2-NLuc only, and these cells plated on the remaining 3 columns of the 96-well plate at 10,000 cells/well. The following day, cells were washed with PBS and starved in phenol red-, glucose-, and pyruvate-free Dulbecco’s Modified Eagle’s Medium (DMEM) for 3 h. Cells were then washed in PBS and then provided PBS with 1 mM CaCl2 and 0.5 mM MgCl2 plus 2 μg/mL coelenterazine h BRET substrate, a white sticker applied to the bottom of the plate, and the plate immediately placed into a BioTek Synergy plate reader. Luminescence was then read repeatedly from the top of the plate at emission wavelengths of 485/20 nm and 640/40 nm for NLuc and mCherry signals, respectively. After several baseline readings, the plate was ejected, and test substrates/compounds were manually pipetted into the wells. […] To calculate BRET activity, at each reading interval, the luminescence of 620 nm emission wavelength was divided by the 485 nm emission wavelength, and the values from the MPC2-Nluc-only expressing cells were subtracted from the cells expressing both constructs. […]

In the case of `CCOC(=O)/C(C#N)=C/c1c[nH]nc1C(C)(C)C` [BE1988], the IC50 [1] is reported as “inactive”.

`N#C/C(=C\c1n[nH]cc1-c1ccccc1)C(=O)O` [BE2617, (E)-2-Cyano-3-(4-Phenyl-3-Pyrazolyl)acrylic Acid] was tested, and the BRET activity [2] was “showed activity”, the IC50 ([1]; read-out: IC50) was 39 nM and the “fold more potent than UK-5099” value ([1]; ratio of IC50 values) was 6 fold.

In the case of `N#C/C(=C\c1cn(-c2ccccc2)c2ccccc12)C(=O)O` [UK-5099, reference compound], the BRET assay activation ([2]; 5 μM UK-5099 vs DMSO vehicle) is reported as “activated”, the IC50 ([1]; read-out: IC50) is reported as 241 nM and the “BRET activity in mutants” value (MPC1-F66A or MPC2-K49A) is reported as “small, but significant, activation of BRET activity”.

For `COc1cccc(C(=O)COc2ccc(CC3SC(=O)[N-]C3=O)cc2)c1.[K+]` (stereo not shown) [MSDC-0602K, reference compound], the BRET assay activation ([2]; 10 μM MSDC-0602K vs DMSO vehicle) was “activated” and the “BRET activity in mutants” value (MPC1-F66A or MPC2-K49A) was “small, but significant, activation of BRET activity”.

In the case of `Cc1nn(-c2ccccc2)c(C)c1/C=C(\C#N)C(=O)O` [BE1980, (E)-2-Cyano-3-(3,5-Dimethyl-1-Phenyl-4-Pyrazolyl)acrylic Acid], the BRET activity [2] is reported as “increased BRET activity” and the IC50 ([1]; read-out: IC50) is reported as 162 nM.

In the case of `Cc1ccc(-c2c[nH]nc2/C=C(\C#N)C(=O)O)cc1` [BE2623, (E)-2-Cyano-3-[4-(p-Tolyl)-3-Pyrazolyl]acrylic Acid], the BRET activity [2] is reported as “showed activity”, the IC50 ([1]; read-out: IC50) is reported as 731 nM and the “fold less potent than UK-5099” value ([1]; inhibiting the respiration) is reported as 3 fold. The “fold less potent than BE2617” value ([1]; ratio of IC50 values) was “more than 18 fold”.

In the case of `O=C(NC(Cc1c[nH]c2ccccc12)C(=O)O)C1CC1` (stereo not shown) [BE1975], the “MPC inhibitory activity” value ([1]; SAR statement) is reported as “abolished activity” and the IC50 [1] is reported as “inactive”.

`N#C/C(=C\c1c[nH]nc1-c1cccc(Br)c1)C(=O)O` [BE1985] was tested, and the BRET activity [2] was “increased BRET activity”, the IC50 ([1]; read-out: IC50) was 638 nM and the “fold less potent than BE1978” value ([1]; ratio of IC50 values) was 5 fold. The “fold less potent than BE1980” value ([1]; ratio of IC50 values) was 4 fold.

With `CC(=O)C(=O)O` [pyruvate] the BRET assay activation ([2]; 5 mM pyruvate vs DMSO vehicle) was “activated”.
